Some test systems named below: 786-0; A498; ACHN; BT-549; CAKI-1; DU-145; HCC 2998; HCT-116; HOP-62; LOX IMVI; M14; MCF7; MDA-MB-231; OVCAR-3; SF-268; SK-MEL-28; SK-MEL-5; SK-OV-3; TK-10; U-251.
What all share (experiment): inhibition of tumour cell growth, NCI panel, 48 h

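In this assay, cells in 96-well plates receive the compound at five concentrations for 48 hours. Endpoints are linearly interpolated between the surrounding concentrations. The concentration for 50% growth inhibition is given as GI50.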 Active and inactive are the calls of the source. Cut-off read from the data, not from the text of the source: active = GI50 up to about 1.1 µM and inactive = higher. Where only a bound is given, the exact number is not on record here.

These results are taken from ChEMBL document CHEMBL1201862, “PubChem BioAssay data set” (2004).

Regarding `Cn1ncc2c(Nc3cccc(Cl)c3)nc(Nc3cccc(Cl)c3)nc21`, the GI50 is 2.43 µM (inactive) in the assay on 786-0; 5.98 µM (inactive) with A498; 10.5 µM (inactive) in the assay with ACHN; 21.8 µM (inactive) in the assay on BT-549; 7.6 µM (inactive) with CAKI-1; 14.6 µM (inactive) with DU-145. The GI50 in the assay on HCC 2998 is 8.93 µM (inactive); in the assay with HCT-116 it was 11.4 µM (inactive); in the assay on HOP-62 it was 17.3 µM (inactive); with LOX IMVI it was 5.82 µM (inactive); in the assay on M14 it was 6.7 µM (inactive); with MCF7, 4.68 µM (inactive). In addition, the GI50 in the assay with MDA-MB-231 is 16.7 µM (inactive); in the assay on OVCAR-3 it was 18.5 µM (inactive); with SF-268 it was 14.1 µM (inactive); with SK-MEL-28 it was 14.8 µM (inactive); in the assay on SK-MEL-5, > 35.6 µM (inactive); in the assay on SK-OV-3 it was 20 µM (inactive). Moreover, the GI50 was 11.5 µM (inactive) in the assay with TK-10 and 8.04 µM (inactive) in the assay with U-251.

For `Oc1cc(Cl)cc2cc(Br)cnc12`, the GI50 in the assay with 786-0 is 9.86 µM (inactive); in the assay on A498 it was 27.7 µM (inactive); with ACHN it was 1.88 µM (inactive); in the assay on BT-549, 1.53 µM (inactive); in the assay with CAKI-1 it was 6.79 µM (inactive); in the assay on DU-145 it was 5.14 µM (inactive). For the same compound, the GI50 was 15.6 µM (inactive) in the assay with HCC 2998; 1.09 µM (active) with HCT-116; 3.4 µM (inactive) with HOP-62; 0.463 µM (active) in the assay with LOX IMVI; 1.56 µM (inactive) in the assay with M14; 3.1 µM (inactive) with MCF7. Besides, the GI50 with MDA-MB-231 is 2.56 µM (inactive); with OVCAR-3 it was 1.52 µM (inactive); in the assay on SF-268 it was 1.59 µM (inactive); with SK-MEL-28, 7.16 µM (inactive); in the assay on SK-MEL-5 it was 1.53 µM (inactive); in the assay with SK-OV-3, > 59.8 µM (inactive). Further, the GI50 is 41.3 µM (inactive) in the assay on TK-10 and 2.07 µM (inactive) in the assay on U-251.
